# According to patent US7064124B2, “NF-κB inhibitor containing substituted benzoic acid derivative as active ingredient” (Daiichi Suntory Pharma Co., Ltd., priority 2001, dated 2006):
# Columns and labels:
# NF-κB = NF-κB luciferase reporter assay in A549/NF-κBLuc cells stimulated with IL-1β; assay type: cell-based, human; conditions: Homo sapiens, A549, A549/NF-κBLuc cells; compound added 1 hour before IL-1β, then 3 hours incubation; luciferase activity; read-out: NF-κB Inhibitory Activity (IC50)
# Procedure, shortened: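 A549 cells stably carrying an NF-κB-driven luciferase reporter (pNFκB-Luc, G418-selected) pre-treated with compound for 1 h, then stimulated with IL-1β and incubated a further 3 h. Luciferase signal used to derive IC50 for NF-κB inhibition.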
# [1] = test system: GalN/LPS-stimulated C3H/HeN female mice; assay: Sepsis model (GalN/LPS), compound given orally; assay type: in vivo, mouse; conditions: oral 10, 30 or 100 mg/kg 10 min before GalN/LPS, vs vehicle group; for TNF-α mRNA levels in liver: liver 60 min after stimulant, real-time PCR; for TNF-α levels in plasma: plasma 90 min after stimulant, ELISA
# Method: Similarly to Experiment 2, a mixed solution of GalN (20 mg) and LPS (2 μg) was intraperitoneally administered as a stimulant to a 7-week-old C3H/HeN female mice. Ten minutes before that, the compound of Example 112 or the compound of Example 157 each suspended in a vehicle (0.5% HPC) was orally administered to give a dose of 10 mg/kg, 30 mg/kg or 100 mg/kg. The TNF-α mRNA levels in liver 60 minutes after the administration of stimulant were measured by the real-time PCR method, and the TNF-α levels in plasma after 90 minutes were measured using the mouse TNF-α ELISA kit. The comparison with the vehicle group was performed by the Dunnett's Multiple Comparison test using Stat-View.
# [2] = test system: carrageenin-induced foot edema in Wister male rat; assay: Acute inflammation model: carrageenin foot edema, compound given orally; assay type: in vivo; conditions: oral 100 mg/kg immediately after carrageenin; foot volume 2 hours after carrageenin; vs vehicle group
# Method: The foot edma ratio was calculated according to the formula: (volume of foot after administration of carrageenin−volume of foot before administration)/volume of foot before administration×100, and shown by the average of foot edma ratio +/−SE.
# On the footpad of the right hind leg of a 5-week-old Wister male rat, 0.1 ml of 1 w/v % λ-carrageenin (Sigma) was subcutaneously administered. Immediately thereafter, the compound of Example 112 or the compound of Example 157 each suspended in a vehicle (0.5% HPC) was orally administered to give a dose of 100 mg/kg. As a positive control, indomethacin (sigma) was orally administered to give a dose of 10 mg/kg. The foot edema ratio was calculated according to the formula: (volume of foot 2 hours after administration of carrageenin−volume of foot before administration)/volume of foot before administration×100, using a volume meter (TK-101, manufactured by Unicom). For the comparison between the vehicle group and the drug administered group, a variance test was performed by the F-test and thereafter, Student's t test was performed when the variance was equal, or Aspin-Welch's t test was performed when the variance was not equal.
# [3] = test system: GalN/LPS-stimulated C3H/HeN female mice; assay: In vivo sepsis model (GalN/LPS), compound given intraperitoneally; design: species or system mouse; conditions: i.p. 10, 30 or 100 mg/kg immediately after GalN/LPS, vs vehicle group
# Method: A mixed solution of N-acetyl galactosamine (GalN, 20 mg, Sigma) and lipopolysaccharide (LPS, 5 μg, Sigma) was intraperitoneally administered as a stimulant to a 7-week-old C3H/HeN female mice and immediately thereafter, the compound of Example 112 suspended in a vehicle (0.5% hydroxypropyl cellulose (HPC), produced by Nippon Soda Co., Ltd.) was intraperitoneally administered to give a dose of 10 mg/kg, 30 mg/kg or 100 mg/kg. The TNF-α mRNA levels and the IL-1β mRNA levels in liver 60 minutes after the administration of stimulant each was measured by the real-time PCR method, and the TNF-α levels in plasma after 90 minutes were measured using the mouse TNF-α ELISA kit (Biosource). In the real-time PCR using PRISM7700 (PE Biosystems Japan) according to the protocol of PCR quantitative System (PE Biosystems Japan), mRNA was extracted from the liver and the TNF-α and IL-1β were detected with cDNA obtained by SuperScript Preamplification System (Lifetech Orient) as a template. For the detection, the following primers and TaqMan probes were used.
# The RNA level in each sample was corrected by the expression level of glyceraldehyde 3-phosphate dehydrogenase (GAPDH) gene.
# ELISA was performed according to the manual included in the kit. The comparison with the vehicle group was performed by the Dunnett's Multiple Comparison test using Stat-View (SAS Institute).
# [4] = liver 60 min after stimulant, real-time PCR
Compound,IC50 (NF-κB),melting point [°C],other results
"COC1=C(OC)C(=O)C(Cc2ccc(OC(C)=O)c(C(=O)Nc3ccc(C(F)(F)F)cc3)c2)=C(C)C1=O [Example 112, N-[5-(5,6-Dimethoxy-3-methyl-1,4-benzoquinon-2-yl)methyl-2-acetoxybenzoyl]-4-trifluoromethylaniline]",14 µM,–,"TNF-α mRNA levels in liver [1]: suppressed dose dependently; TNF-α levels in plasma [1]: suppressed dose dependently; acute inflammation (foot edema) caused by carrageenin [2]: significantly suppressed; IL-1β mRNA levels in liver [3, 4]: suppressed; TNF-α mRNA levels in liver [3, 4]: suppressed dose dependently; TNF-α levels in plasma ([3]; plasma 90 min after stimulant, ELISA): suppressed dose dependently"
"COC1=C(OC)C(=O)C(Cc2ccc(O)c(C(=O)Nc3ccncc3)c2)=C(C)C1=O [Example 157, N-(Pyridin-4-yl)-5-(5,6-dimethoxy-3-methyl-1,4-benzoquinon-2-yl)methyl-2-hydroxybenzamide]",7 µg/mL,171 to 172.5,TNF-α mRNA levels in liver [1]: suppressed dose dependently; TNF-α levels in plasma [1]: suppressed dose dependently; acute inflammation (foot edema) caused by carrageenin [2]: significantly suppressed
"COC1=C(OC)C(=O)C(Cc2ccc(OC)c(C(=O)Nc3cccnc3Cl)c2)=C(C)C1=O [Example 221, N-(2-Chloropyridin-3-yl)-5-(5,6-dimethoxy-3-methyl-1,4-benzoquinon-2-yl)methyl-2-methoxybenzamide]",46 µg/mL,178 to 180,–
"COC1=C(OC)C(=O)C(Cc2ccc(O)c(C(=O)Nc3ccccc3C(F)(F)F)c2)=C(C)C1=O [Example 146, N-[5-(5,6-Dimethoxy-3-methyl-1,4-benzoquinon-2-yl)methyl-2-hydroxybenzoyl]-2-trifluoromethylaniline]",11 µg/mL,111 to 114,–
"COC1=C(OC)C(=O)C(Cc2ccc(O)c(C(=O)Nc3ccc(C(=O)OC(C)(C)C)cc3)c2)=C(C)C1=O [Example 214, tert-Butyl N-[5-(5,6-dimethoxy-3-methyl-1,4-benzoquinon-2-yl)methyl-2-hydroxybenzoyl]-4-aminobenzoate]",10 µg/mL,200.5 to 202,–
"COC1=C(OC)C(=O)C(Cc2ccc(OC(C)=O)c(C(=O)Nc3cc(OC)ncn3)c2)=C(C)C1=O [Example 228, N-(6-Methoxypyrimidin-4-yl)-5-(5,6-dimethoxy-3-methyl-1,4-benzoquinon-2-yl)methyl-2-acetoxybenzamide]",64 µg/mL,138.5 to 141,–
"COC1=C(OC)C(=O)C(Cc2ccc(O)c(C(=O)Nc3ccnc(Cl)c3)c2)=C(C)C1=O [Example 227, N-(2-Chloropyridin-4-yl)-5-(5,6-dimethoxy-3-methyl-1,4-benzoquinon-2-yl)methyl-2-hydroxybenzamide]",20 µg/mL,142 to 144,–
"COC1=C(OC)C(=O)C(Cc2ccc(OCc3cccnc3)c(C(=O)NC3CCCCC3)c2)=C(C)C1=O [Example 171, N-Cyclohexyl-5-(5,6-dimethoxy-3-methyl-1,4-benzoquinon-2-yl)methyl-2-(3-pyridylmethyloxy)benzamide]",26 µg/mL,115 to 118,–
"COC1=C(OC)C(=O)C(Cc2ccc(O)c(C(=O)Nc3cccnc3N3CCOCC3)c2)=C(C)C1=O [Example 223, N-(2-Morpholinopyridin-3-yl)-5-(5,6-dimethoxy-3-methyl-1,4-benzoquinon-2-yl)methyl-2-hydroxybenzamide]",81 µg/mL,210 to 212.5,–
"COC1=C(OC)C(=O)C(Cc2ccc(O)c(C(=O)Nc3cc(OC)ncn3)c2)=C(C)C1=O [Example 229, N-(6-Methoxypyrimidin-4-yl)-5-(5,6-dimethoxy-3-methyl-1,4-benzoquinon-2-yl)methyl-2-hydroxybenzamide]",59 µg/mL,209.5 to 211.5,–
"COC1=C(OC)C(=O)C(Cc2ccc(OC(C)=O)c(C(=O)Nc3ccc(NC(=O)OC(C)(C)C)cc3)c2)=C(C)C1=O [Example 199, N-[5-(5,6-Dimethoxy-3-methyl-1,4-benzoquinon-2-yl)methyl-2-acetoxybenzoyl]-4-(tert-butoxycarbonyl)aminoaniline]",16 µg/mL,188.5 to 191,–
"COC1=C(OC)C(=O)C(Cc2ccc(O)c(C(=O)Nc3cccnc3OC)c2)=C(C)C1=O [Example 216, N-(2-Methoxypyridin-3-yl)-5-(5,6-dimethoxy-3-methyl-1,4-benzoquinon-2-yl)methyl-2-hydroxybenzamide]",10 µg/mL,112 to 114,–
"COC1=C(OC)C(=O)C(Cc2cccc(C(=O)Nc3cccnc3)c2O)=C(C)C1=O [Example 207, N-(Pyridin-3-yl)-3-(5,6-dimethoxy-3-methyl-1,4-benzoquinon-2-yl)methyl-2-hydroxybenzamide]",98 µg/mL,169 to 171,–
"COC1=C(OC)C(=O)C(Cc2ccc(OC(C)=O)c(C(=O)Nc3ccc(CC#N)cc3)c2)=C(C)C1=O [Example 149, N-[5-(5,6-Dimethoxy-3-methyl-1,4-benzoquinon-2-yl)methyl-2-acetoxybenzoyl]-4-cyanomethylaniline]",25 µg/mL,125 to 128,–
"COC1=C(OC)C(=O)C(Cc2ccc(OC(C)=O)c(C(=O)Nc3ccc(-n4ccnc4)cc3)c2)=C(C)C1=O [Example 208, N-[5-(5,6-Dimethoxy-3-methyl-1,4-benzoquinon-2-yl)methyl-2-acetoxybenzoyl]-4-(imidazol-1-yl)aniline]",19 µg/mL,116.5 to 118.5,–
"COC1=C(OC)C(=O)C(Cc2ccc(O)c(C(=O)Nc3ccc(OC)nc3)c2)=C(C)C1=O [Example 181, N-(6-Methoxypyridin-3-yl)-5-(5,6-dimethoxy-3-methyl-1,4-benzoquinon-2-yl)methyl-2-hydroxybenzamide]",11 µg/mL,169 to 170,–
"COC1=C(OC)C(=O)C(Cc2ccc(O)c(C(=O)Nc3cc(OC)ccc3OC)c2)=C(C)C1=O [Example 220, N-[5-(5,6-Dimethoxy-3-methyl-1,4-benzoquinon-2-yl)methyl-2-hydroxybenzoyl]-2,5-dimethoxyaniline]",66 µg/mL,130 to 132,–
"COC1=C(OC)C(=O)C(Cc2ccc(O)c(C(=O)Nc3cccnc3)c2)=C(C)C1=O [Example 158, N-(Pyridin-3-yl)-5-(5,6-dimethoxy-3-methyl-1,4-benzoquinon-2-yl)methyl-2-hydroxybenzamide]",7 µg/mL,119 to 122.5,–
"COC1=C(OC)C(=O)C(Cc2ccc(O)c(C(=O)Nc3ccc(F)cc3)c2)=C(C)C1=O [Example 142, N-[5-(5,6-Dimethoxy-3-methyl-1,4-benzoquinon-2-yl)methyl-2-hydroxybenzoyl]-4-fluoroaniline]",9 µg/mL,125 to 127,–
"COC1=C(OC)C(=O)C(Cc2ccc(O)c(C(=O)Nc3ccc(N)cc3)c2)=C(C)C1=O.Cl [Example 205, N-[5-(5,6-Dimethoxy-3-methyl-1,4-benzoquinon-2-yl)methyl-2-hydroxybenzoyl]-p-phenylenediamine (hydrochloride)]",50 µg/mL,162 to 164,–
